The test concerns SVR cells. In words: SVR cell assay: cell numbers counted at 48 hours, percent inhibition versus control. The format is cell-based, murine. To be noted: Mus musculus, 10,000 SVR cells in 24 well dish, counted at 48 hours; for inhibition at 1 µg/mL: 1 μg/ml, read-out: Percent Inhibition at a Specified Density (μg/ml): 1; for inhibition at 3 µg/mL: 3 μg/ml, read-out: Percent Inhibition at a Specified Density (μg/ml): 3; for inhibition at 6 µg/mL: 6 μg/ml, read-out: Percent Inhibition at a Specified Density (μg/ml): 6.

Procedure: In the case of testing the anti-angiogenic/anti-cancer activity of compounds according to the present invention, an assay based on SVR cells may be employed. […] The cell numbers are counted and compared against controls. Percent inhibition is readily determined from the data obtained.
10,000 SVR cells were seeded in a 24 well dish [Arbiser, et al., J. Am. […] The cell numbers were counted at 48 hours.

Regarding `COc1cccc(OC)c1/C=C/C(=O)c1ccccc1` [Compound 39, 2,6-Dimethoxychalcone], the inhibition at 1 µg/mL came to 31.8%, the inhibition at 3 µg/mL was 56.4% and the inhibition at 6 µg/mL turned out to be 60.8%.
Consider `CC(=O)c1cc2cc(Br)ccc2oc1=O` [Compound 12, 3-Acetyl-6-bromocoumarin, reference compound], for which the inhibition at 1 µg/mL was determined as 20%, the inhibition at 3 µg/mL is 12.7% and the inhibition at 6 µg/mL worked out at 17.4%.
On the same counts, the results for `O=C1C(=Cc2ccccc2)COc2ccccc21` [Compound 66, 3-Benzylidene-4-chromanone] are 12.3%, 23.8% and 54.3%.
In the same order, the values of `Cc1ccc(C(=O)/C=C/c2ccc(OCc3ccccc3)cc2)cc1` [Compound 24, 4-Benzyloxy-4′-methylchalcone] are 18.4%, 5.1% and 17%.
